US20140194374A1, “Anthelmintic Formulations and Treatments” (VIRBAC, priority 2011, published 2014)

Tested on: ML resistant Cooperia strains
Settings: doses ¼ to ⅓rd lower than the standard label dose (7.5 mg/kg)
Protocol: Individual faecal samples (for individual egg count and group larval culture) were collected as per protocol at 7 days intervals at Days 7, 14, 21, 28, 35, 42 and 49. […] Weighing was performed at the beginning, middle, and end of 49 day trial.

## c1ccc([C@H]2CN3CCSC3=N2)cc1 [levamisole]
  Control of ML resistant Cooperia strains: 100%
